The source made the active and inactive calls.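 The calls were made as follows: active = inhibition of at least 50% in a panel; inactive = the rest.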
Tests used:
Test in all cases: off-target binding across receptors and transporters, profiling panel, selectivity assay for STAT3/NF-kB dual inhibitor project, cell-based, radioligand binding, single concentration (AID 624355)
[1] = target: 5-hydroxytryptamine receptor 1A (Homo sapiens) (UniProt P08908); conditions: Ricerca radioligand binding panel, Serotonin (5-Hydroxytryptamine) 5-HT1A, at 10 µM, hits give high values
[2] = target: 5-hydroxytryptamine receptor 2B (Homo sapiens) (UniProt P41595); conditions: Ricerca radioligand binding panel, Serotonin (5-Hydroxytryptamine) 5-HT2B, at 10 µM, hits give high values
Adenosine A1 = conditions: Ricerca radioligand binding panel, at 10 µM, hits give high values
Adenosine A2A = conditions: Ricerca radioligand binding panel, at 10 µM, hits give high values
Adenosine A3 = conditions: Ricerca radioligand binding panel, at 10 µM, hits give high values
Adrenergic B1 = conditions: Ricerca radioligand binding panel, at 10 µM, hits give high values
Adrenergic a1A = conditions: Ricerca radioligand binding panel, at 10 µM, hits give high values
Adrenergic a1B = conditions: Ricerca radioligand binding panel, at 10 µM, hits give high values
Adrenergic a1D = conditions: Ricerca radioligand binding panel, at 10 µM, hits give high values
[3] = target: Alpha-2A adrenergic receptor (Homo sapiens) (UniProt P08913); conditions: Ricerca radioligand binding panel, Adrenergic a2A, at 10 µM, hits give high values
[4] = system: Androgen (Testosterone) AR; conditions: Ricerca radioligand binding panel, at 10 µM, hits give high values
[5] = target: Beta-2 adrenergic receptor (Homo sapiens) (UniProt P07550); conditions: Ricerca radioligand binding panel, Adrenergic B2, at 10 µM, hits give high values
Bradykinin B1 = conditions: Ricerca radioligand binding panel, at 10 µM, hits give high values
Bradykinin B2 = conditions: Ricerca radioligand binding panel, at 10 µM, hits give high values
[6] = system: Calcium Channel L-Type, Benzothiazepine; conditions: Ricerca radioligand binding panel, Benzothiazepine site, at 10 µM, hits give high values
[7] = system: Calcium Channel L-Type, Dihydropyridine; conditions: Ricerca radioligand binding panel, Dihydropyridine site, at 10 µM, hits give high values
Calcium Channel N-Type = conditions: Ricerca radioligand binding panel, at 10 µM, hits give high values
Cannabinoid CB1 = conditions: Ricerca radioligand binding panel, at 10 µM, hits give high values
[8] = target: D(1A) dopamine receptor (Homo sapiens) (UniProt P21728); conditions: Ricerca radioligand binding panel, Dopamine D1, at 10 µM, hits give high values
[9] = target: D(3) dopamine receptor (Homo sapiens) (UniProt P35462); conditions: Ricerca radioligand binding panel, Dopamine D3, at 10 µM, hits give high values
[10] = target: Delta-type opioid receptor (Homo sapiens) (UniProt P41143); conditions: Ricerca radioligand binding panel, Opiate (OP1, DOP), at 10 µM, hits give high values
Dopamine D2S = conditions: Ricerca radioligand binding panel, at 10 µM, hits give high values
Dopamine D4.2 = conditions: Ricerca radioligand binding panel, at 10 µM, hits give high values
Endothelin ETA = conditions: Ricerca radioligand binding panel, at 10 µM, hits give high values
Endothelin ETB = conditions: Ricerca radioligand binding panel, at 10 µM, hits give high values
[11] = system: Epidermal Growth Factor (EGF); conditions: Ricerca radioligand binding panel, at 10 µM, hits give high values
[12] = target: Estrogen receptor (Homo sapiens) (UniProt P03372); conditions: Ricerca radioligand binding panel, Estrogen Era, at 10 µM, hits give high values
[13] = system: GABAA, Flunitrazepam, Central; conditions: Ricerca radioligand binding panel, Flunitrazepam site, at 10 µM, hits give high values
GABAA, Muscimol, Central = conditions: Ricerca radioligand binding panel, Muscimol site, at 10 µM, hits give high values
GABAB1A = conditions: Ricerca radioligand binding panel, at 10 µM, hits give high values
[14] = target: Glucocorticoid receptor (Homo sapiens) (UniProt P04150); conditions: Ricerca radioligand binding panel, at 10 µM, hits give high values
Glutamate, Kainate = conditions: Ricerca radioligand binding panel, at 10 µM, hits give high values
Glutamate, NMDA, Agonism = conditions: Ricerca radioligand binding panel, Agonism site, at 10 µM, hits give high values

Chain of Beta-2 adrenergic receptor (Homo sapiens) (P07550 whole entry, looked up): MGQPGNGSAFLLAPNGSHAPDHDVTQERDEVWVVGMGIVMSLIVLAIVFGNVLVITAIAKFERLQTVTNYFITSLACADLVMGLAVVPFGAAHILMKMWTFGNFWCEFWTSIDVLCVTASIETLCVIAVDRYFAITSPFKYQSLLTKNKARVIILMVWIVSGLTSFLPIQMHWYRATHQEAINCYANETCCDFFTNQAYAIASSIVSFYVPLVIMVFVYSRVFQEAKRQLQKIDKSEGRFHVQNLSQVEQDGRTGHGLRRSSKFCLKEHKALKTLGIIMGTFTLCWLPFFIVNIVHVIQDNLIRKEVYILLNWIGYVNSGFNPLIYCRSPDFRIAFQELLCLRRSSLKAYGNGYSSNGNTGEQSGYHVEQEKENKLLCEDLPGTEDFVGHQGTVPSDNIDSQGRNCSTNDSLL
Chain of Delta-type opioid receptor (Homo sapiens) (P41143 whole entry, looked up): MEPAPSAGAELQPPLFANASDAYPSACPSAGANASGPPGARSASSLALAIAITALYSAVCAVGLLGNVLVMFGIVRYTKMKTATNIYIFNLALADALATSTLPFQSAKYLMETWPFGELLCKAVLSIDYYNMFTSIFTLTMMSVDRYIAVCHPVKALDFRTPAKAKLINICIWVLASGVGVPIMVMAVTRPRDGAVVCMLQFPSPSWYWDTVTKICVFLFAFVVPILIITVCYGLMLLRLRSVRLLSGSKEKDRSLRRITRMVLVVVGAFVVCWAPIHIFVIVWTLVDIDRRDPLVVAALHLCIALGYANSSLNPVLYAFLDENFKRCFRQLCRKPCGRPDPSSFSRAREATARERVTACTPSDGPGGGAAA
Chain of D(1A) dopamine receptor (Homo sapiens) (P21728 whole entry, looked up): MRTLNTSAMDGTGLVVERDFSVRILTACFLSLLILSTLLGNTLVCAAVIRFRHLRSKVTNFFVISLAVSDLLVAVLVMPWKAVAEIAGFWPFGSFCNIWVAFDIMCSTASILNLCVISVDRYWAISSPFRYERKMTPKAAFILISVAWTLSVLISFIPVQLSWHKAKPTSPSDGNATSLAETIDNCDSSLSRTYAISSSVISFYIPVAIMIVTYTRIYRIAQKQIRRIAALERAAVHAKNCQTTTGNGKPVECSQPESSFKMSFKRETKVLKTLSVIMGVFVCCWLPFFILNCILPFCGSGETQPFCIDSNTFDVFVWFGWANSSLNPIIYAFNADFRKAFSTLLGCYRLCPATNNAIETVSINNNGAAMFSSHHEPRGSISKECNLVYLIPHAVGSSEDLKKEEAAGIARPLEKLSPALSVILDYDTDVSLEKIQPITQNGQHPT
Chain of 5-hydroxytryptamine receptor 1A (Homo sapiens) (P08908 whole entry, looked up): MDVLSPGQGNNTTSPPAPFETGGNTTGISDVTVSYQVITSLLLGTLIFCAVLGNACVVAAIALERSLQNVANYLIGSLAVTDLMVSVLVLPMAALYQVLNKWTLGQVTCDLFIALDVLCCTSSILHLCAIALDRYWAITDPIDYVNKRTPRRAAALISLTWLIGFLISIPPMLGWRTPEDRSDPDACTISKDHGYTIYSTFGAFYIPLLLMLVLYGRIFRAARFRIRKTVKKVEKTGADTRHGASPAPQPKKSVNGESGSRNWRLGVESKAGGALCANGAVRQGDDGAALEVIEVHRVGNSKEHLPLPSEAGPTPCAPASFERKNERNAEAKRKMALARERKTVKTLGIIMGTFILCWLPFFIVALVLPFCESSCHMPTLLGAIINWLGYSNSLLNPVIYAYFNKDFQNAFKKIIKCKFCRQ
Chain of Estrogen receptor (Homo sapiens) (P03372 whole entry, looked up): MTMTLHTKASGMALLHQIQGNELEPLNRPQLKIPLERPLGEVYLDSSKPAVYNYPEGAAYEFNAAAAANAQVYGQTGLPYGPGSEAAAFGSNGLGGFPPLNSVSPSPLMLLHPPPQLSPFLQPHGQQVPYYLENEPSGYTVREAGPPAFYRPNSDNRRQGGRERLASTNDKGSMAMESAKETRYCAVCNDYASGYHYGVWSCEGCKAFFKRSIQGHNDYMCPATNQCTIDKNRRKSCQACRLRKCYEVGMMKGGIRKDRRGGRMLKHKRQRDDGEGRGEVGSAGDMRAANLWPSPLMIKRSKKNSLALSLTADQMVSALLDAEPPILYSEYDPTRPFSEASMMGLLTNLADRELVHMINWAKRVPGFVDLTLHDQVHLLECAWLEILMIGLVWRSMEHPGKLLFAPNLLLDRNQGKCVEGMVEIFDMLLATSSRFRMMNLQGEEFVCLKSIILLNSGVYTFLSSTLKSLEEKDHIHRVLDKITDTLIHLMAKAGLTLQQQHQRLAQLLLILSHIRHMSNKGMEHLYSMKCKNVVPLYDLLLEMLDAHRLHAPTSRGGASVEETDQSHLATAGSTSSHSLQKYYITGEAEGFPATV
Chain of D(3) dopamine receptor (Homo sapiens) (P35462 whole entry, looked up): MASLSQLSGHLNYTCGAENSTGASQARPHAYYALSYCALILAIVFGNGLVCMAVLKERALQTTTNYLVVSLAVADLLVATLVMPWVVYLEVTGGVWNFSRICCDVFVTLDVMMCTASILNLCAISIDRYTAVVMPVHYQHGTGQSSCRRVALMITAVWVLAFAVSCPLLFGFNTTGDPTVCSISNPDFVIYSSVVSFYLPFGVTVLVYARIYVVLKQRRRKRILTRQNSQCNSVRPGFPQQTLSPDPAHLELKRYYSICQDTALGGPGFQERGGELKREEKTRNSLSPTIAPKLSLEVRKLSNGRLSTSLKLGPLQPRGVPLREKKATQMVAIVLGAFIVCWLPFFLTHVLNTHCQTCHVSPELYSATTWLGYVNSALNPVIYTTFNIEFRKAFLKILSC
Chain of Glucocorticoid receptor (Homo sapiens) (P04150 whole entry, looked up): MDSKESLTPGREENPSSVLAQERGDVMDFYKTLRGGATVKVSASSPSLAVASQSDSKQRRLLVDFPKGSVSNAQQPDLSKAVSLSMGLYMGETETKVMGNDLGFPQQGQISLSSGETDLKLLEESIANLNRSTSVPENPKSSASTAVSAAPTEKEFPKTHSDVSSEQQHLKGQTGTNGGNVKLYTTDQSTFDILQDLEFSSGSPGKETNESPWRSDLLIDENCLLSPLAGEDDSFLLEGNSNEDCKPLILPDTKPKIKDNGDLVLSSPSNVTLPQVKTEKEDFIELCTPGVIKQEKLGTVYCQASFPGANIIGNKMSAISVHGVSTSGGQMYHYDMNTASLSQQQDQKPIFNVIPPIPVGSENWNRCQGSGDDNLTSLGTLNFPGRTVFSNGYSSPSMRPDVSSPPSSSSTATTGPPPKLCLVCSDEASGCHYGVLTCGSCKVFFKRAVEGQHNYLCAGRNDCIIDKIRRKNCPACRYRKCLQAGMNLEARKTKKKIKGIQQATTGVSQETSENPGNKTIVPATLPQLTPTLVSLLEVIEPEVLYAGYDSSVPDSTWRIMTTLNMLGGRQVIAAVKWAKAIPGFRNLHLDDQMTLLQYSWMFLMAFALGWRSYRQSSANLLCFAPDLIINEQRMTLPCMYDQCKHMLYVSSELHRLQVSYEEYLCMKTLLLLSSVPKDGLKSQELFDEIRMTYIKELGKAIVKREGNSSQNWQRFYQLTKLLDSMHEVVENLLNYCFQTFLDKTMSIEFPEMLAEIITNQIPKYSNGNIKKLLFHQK
Chain of 5-hydroxytryptamine receptor 2B (Homo sapiens) (P41595 whole entry, looked up): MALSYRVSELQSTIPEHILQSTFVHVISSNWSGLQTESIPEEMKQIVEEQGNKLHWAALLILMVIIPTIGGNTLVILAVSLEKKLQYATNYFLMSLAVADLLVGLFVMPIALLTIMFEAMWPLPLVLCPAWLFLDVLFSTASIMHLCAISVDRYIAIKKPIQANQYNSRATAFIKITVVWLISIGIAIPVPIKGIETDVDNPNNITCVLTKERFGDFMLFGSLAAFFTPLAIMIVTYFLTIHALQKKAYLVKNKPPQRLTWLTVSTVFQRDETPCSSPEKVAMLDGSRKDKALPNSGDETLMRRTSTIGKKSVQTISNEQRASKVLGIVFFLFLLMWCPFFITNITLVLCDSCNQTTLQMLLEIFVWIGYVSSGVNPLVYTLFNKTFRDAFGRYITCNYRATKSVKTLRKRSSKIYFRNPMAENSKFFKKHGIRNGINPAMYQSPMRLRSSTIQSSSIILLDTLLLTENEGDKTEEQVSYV
Chain of Alpha-2A adrenergic receptor (Homo sapiens) (P08913 whole entry, looked up): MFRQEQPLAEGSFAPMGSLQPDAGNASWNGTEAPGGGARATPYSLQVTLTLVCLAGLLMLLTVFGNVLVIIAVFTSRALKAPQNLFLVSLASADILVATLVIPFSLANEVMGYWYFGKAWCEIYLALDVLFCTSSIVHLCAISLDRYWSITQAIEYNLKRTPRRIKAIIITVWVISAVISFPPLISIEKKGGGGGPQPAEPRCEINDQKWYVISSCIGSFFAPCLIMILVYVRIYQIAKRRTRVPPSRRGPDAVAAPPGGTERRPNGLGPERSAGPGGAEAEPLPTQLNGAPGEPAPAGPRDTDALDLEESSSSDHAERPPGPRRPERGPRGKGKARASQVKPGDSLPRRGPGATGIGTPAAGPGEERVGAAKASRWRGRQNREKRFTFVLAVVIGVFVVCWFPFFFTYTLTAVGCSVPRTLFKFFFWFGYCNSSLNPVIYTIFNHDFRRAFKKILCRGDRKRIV

COc1ccc(CC2CCN(c3ncnc4sccc34)CC2)cc1 was tested, and the inhibition [1] was 1% (inactive), the inhibition [2] was 47% (inactive) and the inhibition (Adenosine A1) was 52%. The inhibition (Adenosine A2A) was 31% (inactive), the inhibition (Adenosine A3) was 23% (inactive) and the inhibition (Adrenergic B1) was 23% (inactive). For the same compound, the inhibition (Adrenergic a1A) was 28% (inactive), the inhibition (Adrenergic a1B) was 6% (inactive) and the inhibition (Adrenergic a1D) was 19% (inactive). The inhibition [3] was 56%, the inhibition [4] was 11% (inactive) and the inhibition [5] was 10% (inactive). For the same compound, the inhibition (Bradykinin B1) was 4% (inactive), the inhibition (Bradykinin B2) was 8% (inactive) and the inhibition [6] was 8% (inactive). For the same compound, the inhibition [7] was 47% (inactive), the inhibition (Calcium Channel N-Type) was -2% (inactive) and the inhibition (Cannabinoid CB1) was 28% (inactive). For the same compound, the inhibition [8] was 7% (inactive), the inhibition [9] was 51% and the inhibition [10] was 27% (inactive). For the same compound, the inhibition (Dopamine D2S) was 11% (inactive), the inhibition (Dopamine D4.2) was 4% (inactive) and the inhibition (Endothelin ETA) was 21% (inactive). For the same compound, the inhibition (Endothelin ETB) was 6% (inactive), the inhibition [11] was 2% (inactive) and the inhibition [12] was 1% (inactive). The inhibition [13] was -6% (inactive), the inhibition (GABAA, Muscimol, Central) was 58% and the inhibition (GABAB1A) was 10% (inactive). The inhibition [14] was 15% (inactive), the inhibition (Glutamate, Kainate) was -3% (inactive) and the inhibition (Glutamate, NMDA, Agonism) was 9% (inactive).

— PubChem BioAssay AID624355 (The Scripps Research Institute Molecular Screening Center, 2012)
